Reference: PubChem BioAssay AID1919004 (Molecular Pharmacology Branch, DTP, NCI, 2023)

Tested on: 883617-216-R-J1-PDC complex spheroids, growth, % test/control
Test: Anticancer human tumor 883617-216-R-J1-PDC patient-derived bladder carcinoma cell line growth inhibition [AhR]
Conditions: for IC50: curve of first compound; for viability, T/C: stronger effect = lower value
Summary of the method: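 Complex tumor spheroids co-cultured with HUVEC and human MSC stroma; AhR antagonists tested in combination with standard-of-care and investigational agents. Top concentration at or near clinical Cmax (else 10 microM), half-log dilutions; growth expressed as percent test/control.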

[1] = second compound 0.1 µM, first compound 0.0316 µM
[2] = second compound 0.1 µM, first compound 0.1 µM
[3] = second compound 0.1 µM, first compound 0.316 µM
[4] = second compound 0.1 µM, first compound 1 µM
[5] = second compound 0.1 µM, first compound 3.16 µM
[6] = second compound 0.1 µM, first compound 10 µM
[7] = second compound 0.316 µM, first compound 0.0316 µM
[8] = second compound 0.316 µM, first compound 0.1 µM
[9] = second compound 0.316 µM, first compound 0.316 µM
[10] = second compound 0.316 µM, first compound 1 µM
[11] = second compound 0.316 µM, first compound 3.16 µM
[12] = second compound 0.316 µM, first compound 10 µM
[13] = second compound 1 µM, first compound 0.0316 µM
[14] = second compound 1 µM, first compound 0.1 µM
[15] = second compound 1 µM, first compound 0.316 µM
[16] = second compound 1 µM, first compound 1 µM
[17] = second compound 1 µM, first compound 3.16 µM
[18] = second compound 1 µM, first compound 10 µM
[19] = second compound 3.16 µM, first compound 0.0316 µM
[20] = second compound 3.16 µM, first compound 0.1 µM
[21] = second compound 3.16 µM, first compound 0.316 µM
[22] = second compound 3.16 µM, first compound 1 µM
[23] = second compound 3.16 µM, first compound 3.16 µM
[24] = second compound 3.16 µM, first compound 10 µM
[25] = second compound 10 µM, first compound 0.0316 µM
[26] = second compound 10 µM, first compound 0.1 µM
[27] = second compound 10 µM, first compound 0.316 µM
[28] = second compound 10 µM, first compound 1 µM
[29] = second compound 10 µM, first compound 3.16 µM
[30] = second compound 10 µM, first compound 10 µM
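Further: exposure lasted 7 days after dosing on day 3 of spheroid growth.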

Work on `CCc1c2c(nc3ccc(O)cc13)-c1cc3c(c(=O)n1C2)COC(=O)[C@]3(O)CC` + Cc1ccccc1N=Nc1ccc(NC(=O)c2ccnn2C)c(C)c1 yielded an IC50 (second compound 0.1 µM) of 185 nM, an IC50 (second compound 0.316 µM) of 163 nM and an IC50 (second compound 1 µM) of 121 nM. For the same compound, the IC50 (second compound 3.16 µM) was 109 nM, the IC50 (second compound 10 µM) was 199 nM and the viability, T/C (second compound 0.1 µM, first compound 0.000949 µM) was 92%. The viability, T/C (second compound 0.1 µM, first compound 0.003 µM) was 84%, the viability, T/C (second compound 0.1 µM, first compound 0.00949 µM) was 72.7% and the viability, T/C (second compound 0.1 µM, first compound 0.03 µM) was 70.2%. It also gave a viability, T/C (second compound 0.1 µM, first compound 0.0949 µM) of 60.3%, a viability, T/C (second compound 0.1 µM, first compound 0.3 µM) of 42.1% and a viability, T/C (second compound 0.316 µM, first compound 0.000949 µM) of 80.8%. It also gave a viability, T/C (second compound 0.316 µM, first compound 0.003 µM) of 82.2%, a viability, T/C (second compound 0.316 µM, first compound 0.00949 µM) of 77.6% and a viability, T/C (second compound 0.316 µM, first compound 0.03 µM) of 66.8%. For the same compound, the viability, T/C (second compound 0.316 µM, first compound 0.0949 µM) was 56.5%, the viability, T/C (second compound 0.316 µM, first compound 0.3 µM) was 43.6% and the viability, T/C (second compound 1 µM, first compound 0.000949 µM) was 80.9%. The viability, T/C (second compound 1 µM, first compound 0.003 µM) was 83.8%, the viability, T/C (second compound 1 µM, first compound 0.00949 µM) was 79.1% and the viability, T/C (second compound 1 µM, first compound 0.03 µM) was 61.6%. It also gave a viability, T/C (second compound 1 µM, first compound 0.0949 µM) of 54.4%, a viability, T/C (second compound 1 µM, first compound 0.3 µM) of 44% and a viability, T/C (second compound 3.16 µM, first compound 0.000949 µM) of 81.7%. It also gave a viability, T/C (second compound 3.16 µM, first compound 0.003 µM) of 84%, a viability, T/C (second compound 3.16 µM, first compound 0.00949 µM) of 70.7% and a viability, T/C (second compound 3.16 µM, first compound 0.03 µM) of 64.7%. The viability, T/C (second compound 3.16 µM, first compound 0.0949 µM) was 51.5%, the viability, T/C (second compound 3.16 µM, first compound 0.3 µM) was 39.4% and the viability, T/C (second compound 10 µM, first compound 0.000949 µM) was 78.8%. It also gave a viability, T/C (second compound 10 µM, first compound 0.003 µM) of 77.2%, a viability, T/C (second compound 10 µM, first compound 0.00949 µM) of 72.6% and a viability, T/C (second compound 10 µM, first compound 0.03 µM) of 74.8%. The viability, T/C (second compound 10 µM, first compound 0.0949 µM) was 56.8% and the viability, T/C (second compound 10 µM, first compound 0.3 µM) was 44.9%.

`Nc1ccccc1NC(=O)c1ccc(CNC(=O)OCc2cccnc2)cc1` + Cc1ccccc1N=Nc1ccc(NC(=O)c2ccnn2C)c(C)c1 showed an IC50 (second compound 0.1 µM) of 1060 nM, an IC50 (second compound 0.316 µM) of 1080 nM and an IC50 (second compound 1 µM) of 901 nM. The IC50 (second compound 3.16 µM) was 818 nM, the IC50 (second compound 10 µM) was 1140 nM and the viability, T/C [1] was 102%. The viability, T/C [2] was 103%, the viability, T/C [3] was 77.5% and the viability, T/C [4] was 51%. The viability, T/C [5] was 23.3%, the viability, T/C [6] was 1.52% and the viability, T/C [7] was 85.7%. The viability, T/C [8] was 95%, the viability, T/C [9] was 86% and the viability, T/C [10] was 49.5%. It also gave a viability, T/C [11] of 18.6%, a viability, T/C [12] of 1.3% and a viability, T/C [13] of 87.6%. For the same compound, the viability, T/C [14] was 88.5%, the viability, T/C [15] was 76.7% and the viability, T/C [16] was 44.8%. For the same compound, the viability, T/C [17] was 20.1%, the viability, T/C [18] was 1.53% and the viability, T/C [19] was 80.2%. The viability, T/C [20] was 84.7%, the viability, T/C [21] was 70.6% and the viability, T/C [22] was 44.8%. For the same compound, the viability, T/C [23] was 16.6%, the viability, T/C [24] was 1.32% and the viability, T/C [25] was 79.5%. It also gave a viability, T/C [26] of 76.6%, a viability, T/C [27] of 72.4% and a viability, T/C [28] of 51.9%. The viability, T/C [29] was 25.4% and the viability, T/C [30] was 2.23%.

For `Nc1ccn(C2OC(CO)C(O)C2(F)F)c(=O)n1` (stereo not given) + Cc1ccccc1N=Nc1ccc(NC(=O)c2ccnn2C)c(C)c1, the IC50 (second compound 0.1 µM) was < 31.6 nM, the IC50 (second compound 0.316 µM) was < 31.6 nM and the IC50 (second compound 1 µM) was < 31.6 nM. For the same compound, the IC50 (second compound 3.16 µM) was < 31.6 nM, the IC50 (second compound 10 µM) was < 31.6 nM and the viability, T/C [1] was 27.8%. It also gave a viability, T/C [2] of 26.8%, a viability, T/C [3] of 35.4% and a viability, T/C [4] of 32.4%. For the same compound, the viability, T/C [5] was 30.2%, the viability, T/C [6] was 32.2% and the viability, T/C [7] was 25.1%. For the same compound, the viability, T/C [8] was 26.1%, the viability, T/C [9] was 32.5% and the viability, T/C [10] was 33.5%. It also gave a viability, T/C [11] of 35.2%, a viability, T/C [12] of 37.5% and a viability, T/C [13] of 28.6%. The viability, T/C [14] was 22.8%, the viability, T/C [15] was 31.5% and the viability, T/C [16] was 36%. For the same compound, the viability, T/C [17] was 34.2%, the viability, T/C [18] was 31.7% and the viability, T/C [19] was 26.1%. The viability, T/C [20] was 22.3%, the viability, T/C [21] was 31% and the viability, T/C [22] was 31.3%. The viability, T/C [23] was 37.3%, the viability, T/C [24] was 32.4% and the viability, T/C [25] was 36.3%. For the same compound, the viability, T/C [26] was 27.8%, the viability, T/C [27] was 29.4% and the viability, T/C [28] was 34.5%. The viability, T/C [29] was 31.1% and the viability, T/C [30] was 32.4%.

With `O=C(c1cc(Cc2n[nH]c(=O)c3ccccc23)ccc1F)N1CCN(C(=O)C2CC2)CC1` + Cc1ccccc1N=Nc1ccc(NC(=O)c2ccnn2C)c(C)c1 the IC50 (second compound 0.1 µM) was > 10000 nM, the IC50 (second compound 0.316 µM) was > 10000 nM and the IC50 (second compound 1 µM) was > 10000 nM. The IC50 (second compound 3.16 µM) was > 10000 nM, the IC50 (second compound 10 µM) was > 10000 nM and the viability, T/C [1] was 88.7%. The viability, T/C [2] was 90.9%, the viability, T/C [3] was 98.7% and the viability, T/C [4] was 84.3%. The viability, T/C [5] was 84.1%, the viability, T/C [6] was 81% and the viability, T/C [7] was 84.7%. The viability, T/C [8] was 82.1%, the viability, T/C [9] was 76.5% and the viability, T/C [10] was 86.5%. The viability, T/C [11] was 74.8%, the viability, T/C [12] was 85.4% and the viability, T/C [13] was 89%. The viability, T/C [14] was 83.2%, the viability, T/C [15] was 87.2% and the viability, T/C [16] was 80.7%. The viability, T/C [17] was 80.7%, the viability, T/C [18] was 71% and the viability, T/C [19] was 82.8%. For the same compound, the viability, T/C [20] was 85.6%, the viability, T/C [21] was 86.8% and the viability, T/C [22] was 75.2%. The viability, T/C [23] was 71.3%, the viability, T/C [24] was 73.9% and the viability, T/C [25] was 82.3%. It also gave a viability, T/C [26] of 76.8%, a viability, T/C [27] of 78.9% and a viability, T/C [28] of 70.6%. It also gave a viability, T/C [29] of 65.9% and a viability, T/C [30] of 64.4%.
